Laboratory results reported in patent US20220251187A1, “P2X7 RECEPTOR TARGETED THERAPY” (BIOSCEPTRE (AUST) PTY LTD, priority 2019, published 2022).

What was measured:
Type in all cases: cell-based
Kelly cells [1] = assay: CellTiter-Blue cell viability assay after chemotherapy; conditions: increasing doses, 72 hours, FIG. 1C, 1D
Protocol: (§1) 4,000 cells were seeded in a 96 well plate and allowed to adhere over-night. Cells were then treated with increasing amount of chemotherapy or vehicle control for 72 hours to induce varying amount of cell killing. Cell viability was then measured using CellTiter-Blue Cell Viability Assay form Promega following manufacturer's instruction.

RPMI-8226 cells [2] = assay: as above; conditions: increasing doses, 72 hours, FIG. 1B
Protocol: as §1

Kelly cells [3] = assay: nfP2X7 antibody binding to live cells by flow cytometry after chemotherapy; conditions: doxorubicin 0.0625 μM to 0.25 μM or 5 Fu 1 μM to 8 μM, 72 hours, FIG. 2B, 2C
Protocol: (§2) 500,000 cells were seeded in a 6 well plate and allowed to adhere over-night. Cells were then treated with increasing amount of chemotherapy or vehicle control for 72 hours to induce varying amount of cell killing. The remaining live cells were dissociated in PBS based enzyme-free dissociation buffer, washed and re-suspended in staining buffer (PBS, 2% FCS). Cells were then stained for 1 h with primary antibody raised against non-functional P2X7 (here 2-2-1hFc), washed 3 times in staining buffer prior to a 1 h incubation with fluorescently coupled secondary antibody and 7AAD. Fluorescence staining on live cells was acquired using a BD Accuri flow cytometer and analysed with FlowJo-flow cytometry analysis software. Median fluorescence intensity of the live cell population was analysed using 7AAD live dead staining.

RPMI-8226 cells [4] = assay: as above; conditions: doxorubicin 0.0625 μM to 0.25 μM, 72 hours, FIG. 2A
Protocol: as §2

P2X7 receptor = assay: nfP2X7 induction by Condition Media from Doxorubicin treated RPMI-8226 cells with P2X7 inhibitor; conditions: Condition Media from RPMI-8226 treated with Doxorubicin; FIG. 6b
[5] = tested on: myeloma RPMI-8226 cell line; assay: Ethidium influx in response to BzATP stimulation (P2X7 pore opening); conditions: 0.5 mM BzATP, FIG. 1A
Protocol: Normalised ethidium influx in response to 0.5 mM BzATP stimulation in the myeloma RPMI-8226 and neuroblastoma Kelly cell lines. Mean of three independent experiments is shown.

nfP2X7 = assay: HMGB1-driven increase in nfP2X7; conditions: FIG. 6a

Molecule: COc1cccc2c1C(=O)c1c(O)c3c(c(O)c1C2=O)C[C@@](O)(C(=O)CO)C[C@@H]3O[C@H]1C[C@H](N)[C@H](O)[C@H](C)O1 [Doxorubicin]
- Effect on cell viability (CTB assay) (Kelly cells [1]): cell death
- Effect on cell viability (CTB assay) (RPMI-8226 cells [2]): cell death
- Effect on nfP2X7 antibody binding to live cells (Kelly cells [3]): increased nfPX7 antibody binding
- Effect on nfP2X7 antibody binding to live cells (RPMI-8226 cells [4]): increased nfPX7 antibody binding

Molecule: COc1ccc(CC(=O)NC(N=C(NC#N)Nc2cccc3ncccc23)C(C)(C)C)cc1OC (stereo not drawn) [A 740003, N-[1-[[(Cyanoamino)(5-quinolinylamino)methylene]amino]-2,2-dimethylpropyl]-3,4-dimethoxybenzeneacetamide]
- Block of conditioned media induced nfP2X7 induction (P2X7 receptor): does not block

Molecule: O=c1[nH]cc(F)c(=O)[nH]1 [5 Fu, Fluorouracil]
- Effect on cell viability (CTB assay) (Kelly cells [1]): cell death
- Effect on nfP2X7 antibody binding to live cells (Kelly cells [3]): increased nfPX7 antibody binding

Molecule: Nc1ncnc2c1ncn2[C@@H]1O[C@H](COP(=O)(O)OP(=O)(O)OP(=O)(O)O)[C@@H](OC(=O)c2ccc(C(=O)c3ccccc3)cc2)[C@H]1O [BzATP]
- P2X7 pore opening (normalised ethidium influx) [5]: able to open the P2X7 pore

B1: HMGB1: DAMP released by chemo- and radio-therapy (protein, UniProt P09429 1-215, looked up)
High mobility group protein B1: MGKGDPKKPRGKMSSYAFFVQTCREEHKKKHPDASVNFSEFSKKCSERWKTMSAKEKGKFEDMAKADKARYEREMKTYIPPKGETKKKFKDPNAPKRPPSAFFLFCSEYRPKIKGEHPGLSIGDVAKKLGEMWNNTAADDKQPYEKKAAKLKEKYEKDIAAYRAKGKPDAAKKGVVKAEKSKKKKEEEEDEEDEEDEEEEEDEEDEDEEEDDDDE
- Effect on nfP2X7 level (nfP2X7): drives the increase in nfP2X7
